Experimental data: patent US4696925A, “Cholecystokinin antagonist compounds” (Merck & Co., Inc., priority 1985, dated 1987)

Molecular target: T1, Pancreatic CCK (Rattus norvegicus, UniProt P30551)
T1 construct: from tissue; host or cells: pancreas (rat, inferred from the cited method)
T1 sequence (P30551 1-444): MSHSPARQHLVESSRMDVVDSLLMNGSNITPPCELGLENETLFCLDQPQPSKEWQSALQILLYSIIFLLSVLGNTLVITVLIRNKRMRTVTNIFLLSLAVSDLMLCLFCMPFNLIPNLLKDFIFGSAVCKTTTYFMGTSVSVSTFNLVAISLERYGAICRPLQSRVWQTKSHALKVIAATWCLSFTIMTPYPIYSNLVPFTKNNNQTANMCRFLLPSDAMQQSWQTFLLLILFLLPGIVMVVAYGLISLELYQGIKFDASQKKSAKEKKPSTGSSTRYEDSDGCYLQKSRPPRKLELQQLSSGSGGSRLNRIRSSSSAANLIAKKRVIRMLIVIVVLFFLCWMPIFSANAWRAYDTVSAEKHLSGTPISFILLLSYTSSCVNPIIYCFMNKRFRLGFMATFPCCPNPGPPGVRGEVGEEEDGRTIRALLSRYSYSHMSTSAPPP
Assay: Pancreatic CCK inhibition (assay of European Patent Application No. 0,116,150)
Assay type: binding
Details: pancreas CCK inhibition, European Patent Application assay; leucine analogs
From the text: The following formula and tabulation further identify the above listed compounds. Pancreatic CCK inhibition data is also provided; the assay used is that disclosed in said European Patent Application No. 0,116,150.
The following table contains information Identifying other compounds of the present invention and pancrease CCK inhibition data (European Patent Application Assay).

First: O=C1NC(CC2(O)c3ccccc3N3C(=O)C(C4CCCCC4)NC32)c2nc3ccccc3c(=O)n2-c2ccccc21 (stereo not drawn) [Compound 068]
Second: O=C1NC(CC2(O)c3ccccc3N3C(=O)C(C4CCCC4)NC32)c2nc3ccccc3c(=O)n2-c2ccccc21 (stereo not drawn) [Compound 931]
The IC50 of the first is 3.7-fold lower: 0.6 µM for the first, 2.2 µM for the second.

First: CC(CC1NC2N(C1=O)c1ccccc1C2(O)CC1NC(=O)c2ccccc2-n2c1nc1ccccc1c2=O)C(F)(F)F (stereo not drawn) [Compound 328]
Second: CCCC1NC2N(C1=O)c1ccccc1C2(O)CC1NC(=O)c2ccccc2-n2c1nc1ccccc1c2=O (stereo not drawn) [Compound 539]
The IC50 of the first is 12-fold lower: 1 µM for the first, 11.9 µM for the second. The first is the more potent here.

First: O=C1NC(CC2(O)c3ccccc3N3C(=O)C(c4ccccc4)NC32)c2nc3ccccc3c(=O)n2-c2ccccc21 (stereo not drawn) [Compound 500]
Second: C=CCC1NC2N(C1=O)c1ccccc1C2(O)CC1NC(=O)c2ccccc2-n2c1nc1ccccc1c2=O (stereo not drawn) [Compound 540]
The IC50 of the first is 2.6-fold higher: 20 µM for the first, 7.6 µM for the second.

`C=C(C)CC1NC2N(C1=O)c1ccccc1C2(O)CC1NC(=O)c2ccccc2-n2c1nc1ccccc1c2=O` (stereo not drawn) [Compound 538] and `CSCCC1NC2N(C1=O)c1ccccc1C2(O)CC1NC(=O)c2ccccc2-n2c1nc1ccccc1c2=O` (stereo not drawn) [Compound 655] are within 1.5-fold of each other in IC50: 3.3 µM for the first, 4.1 µM for the second.

Going from `CCC(C)C1NC2N(C1=O)c1ccccc1C2(O)CC1NC(=O)c2ccccc2-n2c1nc1ccccc1c2=O` (stereo not drawn) [Compound 654] to `CCCCC1NC2N(C1=O)c1ccccc1C2(O)CC1NC(=O)c2ccccc2-n2c1nc1ccccc1c2=O` (stereo not drawn) [Compound 656], the IC50 falls from 5.9 µM to 2.5 µM (2.4-fold).

With `CCSCCC1NC2N(C1=O)c1ccccc1C2(O)CC1NC(=O)c2ccccc2-n2c1nc1ccccc1c2=O` (stereo not drawn) [Compound 721] the IC50 was 1.5 µM.

Same assay, conditions: pancreatic CCK inhibition, assay of EP 0,116,150

`O=C1NC(Cc2c[nH]c3ncccc23)c2nc3ccccc3c(=O)n2-c2ccccc21` (stereo not drawn) [Compound 841] and `O=C1c2ccccc2-n2c(nc3ccccc3c2=O)C2CC3(O)c4cc(F)ccc4NC3N12` (stereo not drawn) [Compound 856] are within 1.5-fold of each other in IC50: 29.9 µM for the first, 30 µM for the second.

Going from `CC(C)C[C@@H]1NC2N(C1=O)c1ccccc1C2(O)C[C@@H]1NC(=O)c2ccc(F)cc2-n2c1nc1ccccc1c2=O` (stereo partly drawn) [Compound 845] to `O=C1c2cc(F)ccc2-n2c(nc3ccc(F)cc3c2=O)C2CC3(O)c4cc(F)ccc4NC3N12` (stereo not drawn) [Compound 857], the IC50 rises from 1.45 µM to 2.52 µM (1.7-fold).
